{"source": "ChEMBL document CHEMBL5113463", "about": "“Discovery and preclinical evaluations of JBD0131, a novel nitrodihydro-imidazooxazole anti-tuberculosis agent” (Bioorg Med Chem Lett, 2022)", "key": {"[1]": {"experiment": "Metabolic stability in human liver microsomes assessed as half life", "type": "ADME, Microsome"}, "[2]": {"experiment": "Metabolic stability in rat liver microsomes assessed as half life", "type": "ADME, Microsome"}, "[3]": {"experiment": "Metabolic stability in mouse liver microsomes assessed as half life", "type": "ADME, Microsome"}, "[4]": {"test_system": "Mycobacterium tuberculosis", "experiment": "Antimycobacterial activity against Mycobacterium tuberculosis H37Rv assessed as bacterial growth inhibition incubated for 7 days by MABA assay", "type": "functional", "conditions": "168 h, time 7 day"}, "[5]": {"test_system": "Mycobacterium tuberculosis", "experiment": "Antimycobacterial activity against Mycobacterium tuberculosis H37Rv assessed as bacterial growth inhibition incubated for 10 days under hypoxic condition followed by 28 hrs incubation under normoxic condition by Low-Oxygen-Recovery Assay", "type": "functional", "conditions": "264 h, time 11 day"}, "[6]": {"experiment": "Cytotoxicity against African green monkey vero cells assessed as reduction in cell viability", "type": "toxicity, cell-based", "conditions": "chlorocebus sabaeus"}, "[7]": {"molecular_target": "Voltage-gated inwardly rectifying potassium channel KCNH2 (Homo sapiens, UniProt Q12809)", "sequence (Q12809 whole entry)": "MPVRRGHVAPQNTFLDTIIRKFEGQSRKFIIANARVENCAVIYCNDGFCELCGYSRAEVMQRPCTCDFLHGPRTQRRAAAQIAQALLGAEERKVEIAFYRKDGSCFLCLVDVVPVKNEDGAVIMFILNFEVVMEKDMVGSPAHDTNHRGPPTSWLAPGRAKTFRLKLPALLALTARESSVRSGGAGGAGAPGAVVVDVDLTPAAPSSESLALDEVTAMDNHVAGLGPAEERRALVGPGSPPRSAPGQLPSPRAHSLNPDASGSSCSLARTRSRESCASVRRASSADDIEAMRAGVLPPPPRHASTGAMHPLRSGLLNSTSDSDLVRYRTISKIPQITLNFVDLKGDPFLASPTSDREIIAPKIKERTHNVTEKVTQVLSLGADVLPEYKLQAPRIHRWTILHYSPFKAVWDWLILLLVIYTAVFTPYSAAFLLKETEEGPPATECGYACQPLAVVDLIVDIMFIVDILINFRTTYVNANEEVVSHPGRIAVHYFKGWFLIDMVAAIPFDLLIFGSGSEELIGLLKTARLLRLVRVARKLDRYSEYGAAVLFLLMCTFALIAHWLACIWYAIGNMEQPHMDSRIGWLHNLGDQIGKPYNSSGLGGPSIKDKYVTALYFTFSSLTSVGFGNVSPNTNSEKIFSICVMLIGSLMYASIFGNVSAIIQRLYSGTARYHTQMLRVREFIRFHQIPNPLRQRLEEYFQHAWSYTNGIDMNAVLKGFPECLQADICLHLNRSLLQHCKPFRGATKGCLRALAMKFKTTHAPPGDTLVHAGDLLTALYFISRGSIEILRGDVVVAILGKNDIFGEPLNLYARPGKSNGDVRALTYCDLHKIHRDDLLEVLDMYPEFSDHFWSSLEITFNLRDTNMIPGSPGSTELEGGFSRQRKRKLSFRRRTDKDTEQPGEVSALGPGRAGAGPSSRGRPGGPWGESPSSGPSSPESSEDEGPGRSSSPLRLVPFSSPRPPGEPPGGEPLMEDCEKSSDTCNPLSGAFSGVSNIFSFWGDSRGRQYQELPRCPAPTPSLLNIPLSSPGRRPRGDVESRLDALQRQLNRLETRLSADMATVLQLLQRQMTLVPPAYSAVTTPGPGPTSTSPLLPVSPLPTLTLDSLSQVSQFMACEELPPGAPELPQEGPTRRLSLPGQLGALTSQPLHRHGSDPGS", "experiment": "Inhibition of human ERG", "type": "toxicity"}, "[8]": {"molecular_target": "Voltage-dependent L-type calcium channel subunit alpha-1C (Homo sapiens, UniProt Q13936)", "experiment": "Inhibition of human Cav1.2"}, "[9]": {"molecular_target": "T1, A-type voltage-gated potassium channel KCND3 (Homo sapiens, UniProt Q9UK17)", "T1 sequence (Q9UK17 whole entry)": "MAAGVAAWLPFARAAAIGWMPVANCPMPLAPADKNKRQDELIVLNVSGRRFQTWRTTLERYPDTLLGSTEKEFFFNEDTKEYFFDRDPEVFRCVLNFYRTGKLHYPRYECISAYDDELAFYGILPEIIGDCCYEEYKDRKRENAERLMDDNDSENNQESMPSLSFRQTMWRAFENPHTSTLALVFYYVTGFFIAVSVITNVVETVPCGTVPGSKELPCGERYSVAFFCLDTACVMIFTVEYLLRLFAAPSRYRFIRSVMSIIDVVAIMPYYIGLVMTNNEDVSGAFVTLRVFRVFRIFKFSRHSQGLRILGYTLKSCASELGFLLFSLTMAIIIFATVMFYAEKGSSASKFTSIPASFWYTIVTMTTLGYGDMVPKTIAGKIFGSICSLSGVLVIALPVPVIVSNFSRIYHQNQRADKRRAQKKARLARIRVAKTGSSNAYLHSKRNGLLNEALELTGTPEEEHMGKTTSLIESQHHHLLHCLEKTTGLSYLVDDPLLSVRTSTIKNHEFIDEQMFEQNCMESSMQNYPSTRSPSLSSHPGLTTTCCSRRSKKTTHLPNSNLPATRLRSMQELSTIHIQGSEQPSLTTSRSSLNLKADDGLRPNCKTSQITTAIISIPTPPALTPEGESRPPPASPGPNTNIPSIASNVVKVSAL", "experiment": "Inhibition of Kv4.3 (unknown origin)"}, "[10]": {"molecular_target": "Sodium channel protein type 5 subunit alpha (Homo sapiens, UniProt Q14524)", "sequence (Q14524 whole entry)": "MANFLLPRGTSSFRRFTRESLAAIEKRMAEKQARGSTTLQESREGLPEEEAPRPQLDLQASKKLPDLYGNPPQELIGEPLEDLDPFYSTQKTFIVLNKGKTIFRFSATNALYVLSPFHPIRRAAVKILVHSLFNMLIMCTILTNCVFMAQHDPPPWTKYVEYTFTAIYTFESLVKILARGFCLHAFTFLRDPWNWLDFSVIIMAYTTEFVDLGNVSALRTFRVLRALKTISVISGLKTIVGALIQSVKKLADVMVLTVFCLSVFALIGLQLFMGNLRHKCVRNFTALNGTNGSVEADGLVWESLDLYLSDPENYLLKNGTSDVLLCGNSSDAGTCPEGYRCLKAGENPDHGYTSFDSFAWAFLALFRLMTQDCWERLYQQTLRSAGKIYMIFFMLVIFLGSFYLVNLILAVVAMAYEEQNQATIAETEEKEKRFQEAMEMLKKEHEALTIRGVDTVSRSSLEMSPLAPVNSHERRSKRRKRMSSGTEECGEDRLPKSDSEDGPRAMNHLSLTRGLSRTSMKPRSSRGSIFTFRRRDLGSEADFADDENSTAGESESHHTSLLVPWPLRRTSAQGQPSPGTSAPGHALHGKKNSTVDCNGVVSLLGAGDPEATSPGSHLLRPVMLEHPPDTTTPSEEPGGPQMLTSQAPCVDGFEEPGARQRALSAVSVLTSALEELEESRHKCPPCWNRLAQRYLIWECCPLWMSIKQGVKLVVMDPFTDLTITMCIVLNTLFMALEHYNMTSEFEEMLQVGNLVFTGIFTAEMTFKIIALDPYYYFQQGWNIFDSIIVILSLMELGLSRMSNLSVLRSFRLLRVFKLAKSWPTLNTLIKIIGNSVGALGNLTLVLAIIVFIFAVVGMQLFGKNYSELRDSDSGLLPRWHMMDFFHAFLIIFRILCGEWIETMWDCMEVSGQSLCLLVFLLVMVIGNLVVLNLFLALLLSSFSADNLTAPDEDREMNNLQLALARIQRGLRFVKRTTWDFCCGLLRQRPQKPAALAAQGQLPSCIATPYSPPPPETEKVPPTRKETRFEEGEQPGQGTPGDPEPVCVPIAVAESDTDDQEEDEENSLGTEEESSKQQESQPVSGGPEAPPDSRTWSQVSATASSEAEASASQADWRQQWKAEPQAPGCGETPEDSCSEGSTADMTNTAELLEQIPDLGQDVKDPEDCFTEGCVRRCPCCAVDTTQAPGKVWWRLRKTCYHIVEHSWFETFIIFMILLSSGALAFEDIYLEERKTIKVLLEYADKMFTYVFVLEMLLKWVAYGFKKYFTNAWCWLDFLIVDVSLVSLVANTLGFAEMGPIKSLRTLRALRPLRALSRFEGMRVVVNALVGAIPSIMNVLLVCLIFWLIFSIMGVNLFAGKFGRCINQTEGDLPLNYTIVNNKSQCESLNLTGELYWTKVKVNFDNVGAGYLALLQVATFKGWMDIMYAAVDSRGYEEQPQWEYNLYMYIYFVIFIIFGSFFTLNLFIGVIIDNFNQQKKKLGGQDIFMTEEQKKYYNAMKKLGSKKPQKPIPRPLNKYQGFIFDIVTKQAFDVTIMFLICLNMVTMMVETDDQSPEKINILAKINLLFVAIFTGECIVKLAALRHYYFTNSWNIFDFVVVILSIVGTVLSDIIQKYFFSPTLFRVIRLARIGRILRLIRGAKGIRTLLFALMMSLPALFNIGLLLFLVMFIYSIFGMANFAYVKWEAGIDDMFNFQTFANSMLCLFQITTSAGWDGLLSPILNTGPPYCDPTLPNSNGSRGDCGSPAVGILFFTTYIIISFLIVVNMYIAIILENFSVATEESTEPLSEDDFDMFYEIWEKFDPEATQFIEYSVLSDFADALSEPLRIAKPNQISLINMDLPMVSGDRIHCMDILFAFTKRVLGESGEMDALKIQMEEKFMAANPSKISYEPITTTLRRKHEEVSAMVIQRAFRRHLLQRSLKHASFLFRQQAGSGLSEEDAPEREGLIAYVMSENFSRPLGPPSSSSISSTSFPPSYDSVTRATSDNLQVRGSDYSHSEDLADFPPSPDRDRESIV", "experiment": "Inhibition of NaV 1.5 (unknown origin)"}, "[11]": {"experiment": "Half life in Sprague-Dawley rat at 1 mg/kg, iv", "type": "ADME, organism-based", "conditions": "in vivo"}, "[12]": {"experiment": "Cmax in Sprague-Dawley rat at 4 mg/kg, po", "type": "ADME, organism-based", "parameters": "dose 4 mg/kg, route po", "conditions": "in vivo"}, "[13]": {"experiment": "AUC (0-last) in Sprague-Dawley rat at 4 mg/kg, po", "type": "ADME, organism-based", "conditions": "in vivo"}, "[14]": {"experiment": "Half life in Beagle dog at 0.5 mg/kg, iv", "type": "ADME, organism-based, Canis lupus familiaris", "conditions": "in vivo"}, "[15]": {"experiment": "Cmax in Beagle dog at 2 mg/kg, po", "type": "ADME, organism-based, Canis lupus familiaris", "parameters": "dose 2 mg/kg, route po", "conditions": "in vivo"}, "[16]": {"experiment": "AUC (0-last) in Beagle dog at 2 mg/kg, po", "type": "ADME, organism-based, Canis lupus familiaris", "conditions": "in vivo"}, "[17]": {"experiment": "Volume of distribution in CD-1 mouse at 0.6 mg/kg, iv", "type": "ADME, organism-based", "conditions": "in vivo"}, "[18]": {"experiment": "Half life in CD-1 mouse at 0.6 mg/kg, iv", "type": "ADME, organism-based", "conditions": "in vivo"}, "[19]": {"experiment": "Cmax in CD-1 mouse at 5 mg/kg, po", "type": "ADME, organism-based", "parameters": "dose 5 mg/kg, route po", "conditions": "in vivo"}, "[20]": {"experiment": "AUC (0-last) in CD-1 mouse at 5 mg/kg, po", "type": "ADME, organism-based", "parameters": "dose 5 mg/kg, route po", "conditions": "mouse, in vivo"}, "[21]": {"experiment": "Oral bioavailability in CD-1 mouse at 5 mg/kg", "type": "ADME, organism-based", "conditions": "mouse, in vivo, po, 5 mg/kg"}, "[22]": {"test_system": "Mycobacterium tuberculosis", "experiment": "Antimycobacterial activity against clinical isolate drug susceptible Mycobacterium tuberculosis H37Rv assessed as bacterial growth inhibition", "type": "functional"}, "[23]": {"test_system": "Mycobacterium tuberculosis", "experiment": "In vivo antimycobacterial activity against Mycobacterium tuberculosis Erdman infected mouse acute tuberculosis infection model assessed as reduction lung bacterial load by measuring CFU at 15 mg/kg for 3 weeks at 5 days/week", "type": "functional, organism-based"}}, "note": "Active and inactive are the calls of the source. The rule behind the calls is not given here.", "data": [{"smiles": "C[C@]1(CN2CCc3nc(-c4ccc(F)cc4)sc3CC2)Cn2cc([N+](=O)[O-])nc2O1", "values": [{"measurement": "half-life", "setting": "[1]", "value": 15, "unit": "min"}, {"measurement": "half-life", "setting": "[2]", "value": 8, "unit": "min"}, {"measurement": "half-life", "setting": "[3]", "value": 7, "unit": "min"}, {"measurement": "MIC", "setting": "[4]", "value": 0.03, "unit": "µg/mL"}, {"measurement": "MIC", "setting": "[5]", "value": "> 8", "unit": "µg/mL"}, {"measurement": "CC50", "setting": "[6]", "value": "> 32", "unit": "µg/mL"}]}, {"smiles": "C[C@]1(CN2Cc3nc(-c4ccc(F)cc4)sc3C2)Cn2cc([N+](=O)[O-])nc2O1", "values": [{"measurement": "IC50", "setting": "[7]", "value": 1.69, "unit": "µM"}, {"measurement": "IC50", "setting": "[8]", "value": 13.3, "unit": "µM"}, {"measurement": "IC50", "setting": "[9]", "value": "> 40", "unit": "µM"}, {"measurement": "IC50", "setting": "[10]", "value": 12.9, "unit": "µM"}, {"measurement": "half-life", "setting": "[11]", "value": 279, "unit": "min"}, {"measurement": "Cmax", "setting": "[12]", "value": 57.9, "unit": "nM"}, {"measurement": "AUClast", "setting": "[13]", "value": 574, "unit": "ng·h"}, {"measurement": "half-life", "setting": "[14]", "value": 918, "unit": "min"}, {"measurement": "Cmax", "setting": "[15]", "value": 5.82, "unit": "nM"}, {"measurement": "AUClast", "setting": "[16]", "value": 166, "unit": "ng·h"}]}, {"smiles": "C[C@]1(CN2Cc3nc(-c4ccc(F)cc4F)sc3C2)Cn2cc([N+](=O)[O-])nc2O1", "values": [{"measurement": "MIC", "setting": "[4]", "value": "< 0.013", "unit": "µg/mL"}, {"measurement": "CC50", "setting": "[6]", "value": "> 32", "unit": "µg/mL"}, {"measurement": "Vd", "setting": "[17]", "value": 2.66, "unit": "L/kg"}, {"measurement": "half-life", "setting": "[18]", "value": 185, "unit": "min"}, {"measurement": "Cmax", "setting": "[19]", "value": 182, "unit": "ng/mL"}, {"measurement": "AUClast", "setting": "[20]", "value": 1789, "unit": "ng·h/mL"}, {"measurement": "F", "setting": "[21]", "value": 9.6, "unit": "%"}]}, {"smiles": "C[C@]1(CN2CCc3nc(-c4ccc(F)cc4)ccc3C2)Cn2cc([N+](=O)[O-])nc2O1", "values": [{"measurement": "half-life", "setting": "[1]", "value": 25, "unit": "min"}, {"measurement": "half-life", "setting": "[2]", "value": 6, "unit": "min"}, {"measurement": "half-life", "setting": "[3]", "value": 22, "unit": "min"}, {"measurement": "MIC", "setting": "[4]", "value": "< 0.031", "unit": "µg/mL"}, {"measurement": "MIC", "setting": "[5]", "value": 4.83, "unit": "µg/mL"}, {"measurement": "CC50", "setting": "[6]", "value": "> 32", "unit": "µg/mL"}]}, {"smiles": "CO[C@H]1/C=C/O[C@@]2(C)Oc3c(C)c(O)c4c(O)c(c(/C=N/N5CCN(C)CC5)c(O)c4c3C2=O)NC(=O)/C(C)=C\\C=C\\[C@H](C)[C@H](O)[C@@H](C)[C@@H](O)[C@@H](C)[C@H](OC(C)=O)[C@@H]1C", "note": "[RIFAMPIN]", "values": [{"measurement": "MIC50", "setting": "[22]", "value": 0.035, "unit": "µg/mL"}, {"measurement": "MIC90", "setting": "[22]", "value": 0.064, "unit": "µg/mL"}, {"measurement": "Activity", "setting": "[23]", "value": "Active"}]}, {"smiles": "NNC(=O)c1ccncc1", "note": "[ISONIAZID]", "values": [{"measurement": "MIC50", "setting": "[22]", "value": 0.024, "unit": "µg/mL"}, {"measurement": "MIC90", "setting": "[22]", "value": 0.034, "unit": "µg/mL"}]}, {"smiles": "Cc1cc(F)ccc1-c1nc2c(s1)CN(C[C@@]1(C)Cn3cc([N+](=O)[O-])nc3O1)C2", "values": [{"measurement": "MIC", "setting": "[4]", "value": "< 0.013", "unit": "µg/mL"}, {"measurement": "CC50", "setting": "[6]", "value": "> 32", "unit": "µg/mL"}, {"measurement": "Vd", "setting": "[17]", "value": 3.38, "unit": "L/kg"}, {"measurement": "half-life", "setting": "[18]", "value": 124, "unit": "min"}, {"measurement": "Cmax", "setting": "[19]", "value": 201, "unit": "ng/mL"}, {"measurement": "AUClast", "setting": "[20]", "value": 1441, "unit": "ng·h/mL"}, {"measurement": "F", "setting": "[21]", "value": 20.5, "unit": "%"}]}]}
